Laboratory results from patent publication US20260285879A1, “CDK INHIBITOR AND CRYSTAL FORM OF PHARMACEUTICALLY ACCEPTABLE SALT THEREOF, AND USE THEREOF” (priority 2023, published 2026).
Where two headings read alike, the source gives them in different places.

Key:
Format in all cases: physicochemical
[1] = Competition experiment between anhydrates and solvates and solvent activity experiment
[2] = Stress testing (high temperature, high humidity, illumination); conditions: for remaining at […] / remaining at 336 h / remaining at 720 h: read-out: Content
[3] = Stability test, placed open 7 days (HPLC purity, XRPD); grinding or crushing; conditions: for remaining at […]: solid state, open, 7 days, read-out: Purity (Peak area %) 7 days
Excerpt: Subsequently, the samples after 7 days were respectively detected by HPLC and XRPD to determine their chemical and physical stabilities.

[4] = Dynamic vapor sorption (DVS)
Experimental: 4. Dynamic Vapor Sorption (DVS)
Instrument: TA Instruments Q5000 SA
Detection method: 20 to 50 mg of the sample was placed in a tared sample basket and automatically weighed, and DVS testing was performed according to the parameters in Table 7: Step Time: 60 min; Equilibration Time per RH %: 1 hour; Total Gas Flow Rate: 200 sccm; Gradient mode: 0%-90%-0% humidity variation, with a humidity variation amount of 10% for each gradient level between 0% and 90%, and gradient endpoint was determined by dm/dt<0.01% maintained for 10 minutes.

[5] = Accelerated stability testing; conditions: 40° C.±2° C./75%±5% RH
Experimental: (2) Accelerated Stability Testing
(§1) Packaging: Simulated the commercial packaging (using a pharmaceutical-grade low-density polyethylene bag as the inner packaging and a polyester/aluminum/polyethylene composite bag for pharmaceutical packaging as the outer packaging)
Investigation conditions: 40° C.±2° C./75%±5% RH

[6] = Long-term stability testing; conditions: 25° C.±2° C./60%±5% RH
Experimental: (3) Long-Term Stability Testing
as §1
Investigation conditions: 25° C.±2° C./60%±5% RH

[7] = High Humidity (92.5% RH), 7 days
[8] = High Humidity (92.5% RH), 14 days
[9] = High Humidity (92.5% RH), 30 days
[10] = High Temperature (60° C.), 7 days
[11] = High Temperature (60° C.), 14 days
[12] = High Temperature (60° C.), 30 days
[13] = Illumination Testing 45001x ± 5001x, 7 days
[14] = Illumination Testing 45001x ± 5001x, 14 days
[15] = Illumination Testing 45001x ± 5001x, 30 days
[16] = 60° C., 92.5% RH and 40° C./75% RH for 7 days

SMILES: CC(=O)c1c(C)c2cnc(Nc3ccc4c(c3)OC[C@@H]3CN(C5CCN(C)CC5)CCN43)nc2n(C2CCCC2)c1=O [listing 1 of 4 here]
- Test Results (crystalline form by XRPD) ([1]; solvent activity experiment, 20% Dimethyl sulfoxide (v/v)): crystalline form A-I
- Test Results (crystalline form by XRPD) ([1]; solvent activity experiment, 50% Dimethyl sulfoxide (v/v)): crystalline form A-I
- Test Results (crystalline form by XRPD) ([1]; solvent activity experiment, 80% Dimethyl sulfoxide (v/v)): crystalline form A-I

SMILES: CC(=O)c1c(C)c2cnc(Nc3ccc4c(c3)OC[C@@H]3CN(C5CCN(C)CC5)CCN43)nc2n(C2CCCC2)c1=O [crystalline form A-I]
- Description Appearance ([2]; 0 Day): Yellow
- crystalline form ([2]; 0 Day): crystalline
- Description Appearance [2, 7]: Yellow
- remaining at […] [2, 7]: 100%
- Description Appearance [2, 8]: Yellow
- remaining at 336 h [2, 8]: 99.6%
- Description Appearance [2, 9]: Yellow
- remaining at 720 h [2, 9]: 101%
- Description Appearance [2, 10]: Yellow
- remaining at […] [2, 10]: 100%
- Description Appearance [2, 11]: Yellow
- remaining at 336 h [2, 11]: 101%
- Description Appearance [2, 12]: Yellow
- remaining at 720 h [2, 12]: 100%
- Description Appearance [2, 13]: Yellow
- Total impurities [2, 13]: 0.76%
- loss on drying [2, 13]: 0.07%
- remaining at […] [2, 13]: 101%
- Description Appearance [2, 14]: Yellow
- Total impurities [2, 14]: 0.79%
- loss on drying [2, 14]: 0.06%
- remaining at 336 h [2, 14]: 100%
- Description Appearance [2, 15]: Yellow
- Total impurities [2, 15]: 0.84%
- crystalline form [2, 15]: Unchanged
- loss on drying [2, 15]: 0.07%
- remaining at 720 h [2, 15]: 100%
- change in the description ([2]; all stress test conditions): no significant change
- change in the hygroscopic weight gain ([2]; high-humidity conditions): no significant change
- relevant substances compared with 0 month ([2]; high-humidity conditions): remained unchanged
- change in relevant substances ([2]; high-temperature conditions): no significant change
- Purity (Peak area %) 0 day ([3]; 0 day): 99.16 Peak area %
- chemical stability (HPLC) [3, 16]: chemically stable
- crystalline form by XRPD after 7 days under the three conditions [3, 16]: remained unchanged
- crystalline form after grinding or crushing ([3]; grinding or crushing): remained unchanged
- remaining at […] ([3]; 40° C./75% RH): 99.2%
- remaining at […] ([3]; 60° C.): 99.2%
- remaining at […] ([3]; 92.5% RH): 99.2%
- hygroscopicity (DVS) ([4]; 0%-90% RH): non-hygroscopic
- weight change (DVS) ([4]; across 0%-90% RH): approximately 0.17%

SMILES: CC(=O)c1c(C)c2cnc(Nc3ccc4c(c3)OC[C@@H]3CN(C5CCN(C)CC5)CCN43)nc2n(C2CCCC2)c1=O [listing 2 of 4 here]
- Test Results (crystalline form by XRPD) ([1]; solvent activity experiment, 20% Trifluoroethanol (v/v)): crystalline form A-I
- Test Results (crystalline form by XRPD) ([1]; solvent activity experiment, 50% Trifluoroethanol (v/v)): crystalline form A-I
- Test Results (crystalline form by XRPD) ([1]; solvent activity experiment, 80% Trifluoroethanol (v/v)): crystalline form A-II

SMILES: CC(=O)c1c(C)c2cnc(Nc3ccc4c(c3)OC[C@@H]3CN(C5CCN(C)CC5)CCN43)nc2n(C2CCCC2)c1=O [listing 3 of 4 here]
- Description Appearance ([5]; 0 months): Yellow
- Total impurities ([5]; 0 months): 0.84%
- crystalline form ([5]; 0 months): crystalline
- loss on drying ([5]; 0 months): 0.03%
- Description Appearance ([5]; 1 month): Yellow
- Total impurities ([5]; 1 month): 0.80%
- loss on drying ([5]; 1 month): 0.04%
- Description Appearance ([5]; 2 months): Yellow
- Total impurities ([5]; 2 months): 0.82%
- loss on drying ([5]; 2 months): 0.02%
- Description Appearance ([5]; 3 months): Yellow
- Total impurities ([5]; 3 months): 0.85%
- crystalline form ([5]; 3 months): Unchanged
- loss on drying ([5]; 3 months): 0.02%
- Description Appearance ([5]; 6 months): Yellow
- Total impurities ([5]; 6 months): 0.77%
- crystalline form ([5]; 6 months): Unchanged
- loss on drying ([5]; 6 months): 0.08%
- remaining at 720 h ([5]; solid, 75% rh storage, 1 month, read-out: Measured content): 100%
- remaining at 1440 h ([5]; solid, 75% rh storage, 2 months, read-out: Measured content): 101%
- remaining at 2160 h ([5]; solid, 75% rh storage, 3 months, read-out: Measured content): 101%
- remaining at 4320 h ([5]; solid, 75% rh storage, 6 months, read-out: Measured content): 101%
- Description Appearance ([6]; 0 months): Yellow
- Total impurities ([6]; 0 months): 0.84%
- crystalline form ([6]; 0 months): crystalline
- loss on drying ([6]; 0 months): 0.03%
- Description Appearance ([6]; 3 months): Yellow solid
- Total impurities ([6]; 3 months): 0.89%
- crystalline form ([6]; 3 months): Unchanged
- loss on drying ([6]; 3 months): 0.02%
- Description Appearance ([6]; 6 months): Yellow solid
- Total impurities ([6]; 6 months): 0.75%
- crystalline form ([6]; 6 months): Unchanged
- loss on drying ([6]; 6 months): 0.05%
- Description Appearance ([6]; 9 months): Yellow solid
- Total impurities ([6]; 9 months): 0.73%
- crystalline form ([6]; 9 months): Unchanged
- loss on drying ([6]; 9 months): 0.05%
- Description Appearance ([6]; 12 months): Yellow solid
- Total impurities ([6]; 12 months): 0.78%
- crystalline form ([6]; 12 months): Unchanged
- loss on drying ([6]; 12 months): 0.05%
- Description Appearance ([6]; 18 months): Yellow solid
- Total impurities ([6]; 18 months): 0.71%
- crystalline form ([6]; 18 months): Unchanged
- loss on drying ([6]; 18 months): 0.03%
- remaining at 2160 h ([6]; solid, 60% rh storage, 3 months, read-out: Measured content): 101%
- remaining at 4320 h ([6]; solid, 60% rh storage, 6 months, read-out: Measured content): 101%
- remaining at 6480 h ([6]; solid, 60% rh storage, 9 months, read-out: Measured content): 99.6%
- remaining at 8640 h ([6]; solid, 60% rh storage, 12 months, read-out: Measured content): 101%
- remaining at 12960 h ([6]; solid, 60% rh storage, 18 months, read-out: Measured content): 98.7%

SMILES: CC(=O)c1c(C)c2cnc(Nc3ccc4c(c3)OC[C@@H]3CN(C5CCN(C)CC5)CCN43)nc2n(C2CCCC2)c1=O [listing 4 of 4 here]
- Test Results (crystalline form by XRPD) ([1]; competition experiment, n-Butanol, room temperature): crystalline form A-I
- Test Results (crystalline form by XRPD) ([1]; competition experiment, n-Butanol/Anisole (v:v = 1:1), room temperature): crystalline form A-I

SMILES: CC(=O)c1c(C)c2cnc(Nc3ccc4c(c3)OC[C@@H]3CN(C5CCN(C)CC5)CCN43)nc2n(C2CCCC2)c1=O [crystalline form F]
- XRPD pattern / crystalline form after the DVS test ([4]; after DVS test): did not change
- moisture absorption (DVS) ([4]; at 80% RH): approximately 3.8%
